Where “and” joins values, the source holds several entries; their conditions need not be identical. Identical values can stand only once. Inconclusive results and toxic doses are left out.
Test system: BDF1 mice, B16 melanoma ip, median survival T/C
Assay: NCI In Vivo Anticancer Drug Screen. Data for tumor model B16 Melanoma (intraperitoneal) in B6D2F1 (BDF1) mice
Conditions: endpoint: median survival time, higher = longer survival
In short: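 Compounds were tested in mice carrying transplantable tumors. Survival or tumor size was recorded, and each value is the treated-group measurement (T) divided by that of the vehicle-treated control group (C).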

[1] = dose: 1.0 mg/kg/injection, schedule: Q01DX009 (ip), vehicle: saline
[2] = dose: 2.0 mg/kg/injection, schedule: Q01DX009 (ip), vehicle: saline
[3] = dose: 4.0 mg/kg/injection, schedule: Q01DX009 (ip), vehicle: saline
[4] = dose: 8.0 mg/kg/injection, schedule: Q01DX009 (ip), vehicle: saline
[5] = dose: 100.0 mg/kg/injection, schedule: Q01DX009 (ip), vehicle: saline with Tween-80
[6] = dose: 400.0 mg/kg/injection, schedule: Q01DX009 (ip), vehicle: saline with Tween-80
[7] = dose: 50.0 mg/kg/injection, schedule: Q01DX009 (ip), vehicle: saline with Tween-80
[8] = dose: 200.0 mg/kg/injection, schedule: Q01DX009 (ip), vehicle: saline with Tween-80
[9] = dose: 25.0 mg/kg/injection, schedule: Q01DX009 (ip), vehicle: saline with Tween-80
[10] = dose: 100.0 mg/kg/injection, schedule: Q01DX009 (ip), vehicle: Klucel (hydroxypropylcellulose) (HPC)
[11] = dose: 200.0 mg/kg/injection, schedule: Q01DX009 (ip), vehicle: Klucel (hydroxypropylcellulose) (HPC)
[12] = dose: 5.0 mg/kg/injection, schedule: Q01DX009 (ip), vehicle: saline with Tween-80
[13] = dose: 10.0 mg/kg/injection, schedule: Q01DX009 (ip), vehicle: saline with Tween-80
[14] = dose: 12.5 mg/kg/injection, schedule: Q04DX003 (ip), vehicle: Klucel (hydroxypropylcellulose) (HPC)

With `Nc1nc([Se])c2ncn(C3OC(CO)C(O)C3O)c2n1` (configuration not stated) the T/C [1] was 114 % of control, the T/C [2] was 116 % of control and 117 % of control and the T/C [3] was 114 % of control. The T/C [4] was 116 % of control and 117 % of control and the T/C (dose: 16.0 mg/kg/injection, schedule: Q01DX009 (ip), vehicle: saline) was 121 % of control.
In the case of `CC1=C(CCC(=O)O)c2cc3nc(cc4[nH]c(cc4C)cc4[nH]c(cc1n2)cc4C)C(C)(C)C3CCC(=O)O` (configuration not stated), the T/C (dose: 3.0 mg/kg/injection, schedule: Q01DX009 (ip), vehicle: Klucel (hydroxypropylcellulose) (HPC)) was 109 % of control, the T/C (dose: 6.0 mg/kg/injection, schedule: Q01DX009 (ip), vehicle: Klucel (hydroxypropylcellulose) (HPC)) was 101 % of control and the T/C (dose: 12.0 mg/kg/injection, schedule: Q01DX009 (ip), vehicle: Klucel (hydroxypropylcellulose) (HPC)) was 90 % of control. The T/C (dose: 24.0 mg/kg/injection, schedule: Q01DX009 (ip), vehicle: Klucel (hydroxypropylcellulose) (HPC)) was 104 % of control.
With `O=C(O)c1ccc2sc3ccccc3c(=O)c2c1` the T/C (dose: 75.0 mg/kg/injection, schedule: Q01DX009 (ip), vehicle: Klucel (hydroxypropylcellulose) (HPC)) was 100 % of control, the T/C (dose: 150.0 mg/kg/injection, schedule: Q01DX009 (ip), vehicle: Klucel (hydroxypropylcellulose) (HPC)) was 96 % of control and the T/C (dose: 300.0 mg/kg/injection, schedule: Q01DX009 (ip), vehicle: Klucel (hydroxypropylcellulose) (HPC)) was 96 % of control.
With `COc1cc(NC(=O)CN(CCCl)CCCl)cc(OC)c1OC` the T/C [5] was 170 % of control and the T/C [6] was 161 % of control.
In the case of `CCCC1(CCC)CN(C)C1=O`, the T/C (dose: 12.5 mg/kg/injection, schedule: Q01DX009 (ip), vehicle: saline) was 91 % of control, the T/C (dose: 25.0 mg/kg/injection, schedule: Q01DX009 (ip), vehicle: saline) was 89 % of control and the T/C (dose: 50.0 mg/kg/injection, schedule: Q01DX009 (ip), vehicle: saline) was 100 % of control. For the same molecule, the T/C (dose: 100.0 mg/kg/injection, schedule: Q01DX009 (ip), vehicle: saline) was 106 % of control and the T/C (dose: 200.0 mg/kg/injection, schedule: Q01DX009 (ip), vehicle: saline) was 93 % of control.
For `Nc1ccc(OS(=O)(=O)c2ccccc2)cc1`, the T/C [7] was 97 % of control, the T/C [5] was 100 % of control and the T/C [8] was 101 % of control. The T/C [6] was 90 % of control.
With `CCCCCCCCCCCC[N+](C)(C)CCCCCCCCCCCC` the T/C [3] was 87 % of control and the T/C [4] was 88 % of control and 94 % of control.
With `C/C=C1/C[C@@H](C)[C@@](C)(O)C(=O)OCC2=CCN3CC[C@@H](OC1=O)[C@@H]23` the T/C (dose: 10.0 mg/kg/injection, schedule: Q01DX009 (ip), vehicle: saline) was 110 % of control, the T/C (dose: 11.3 mg/kg/injection, schedule: Q01DX009 (ip), vehicle: saline) was 111 % of control and the T/C (dose: 20.0 mg/kg/injection, schedule: Q01DX009 (ip), vehicle: saline) was 113 % of control. For the same molecule, the T/C (dose: 22.5 mg/kg/injection, schedule: Q01DX009 (ip), vehicle: saline) was 285 % of control, the T/C (dose: 40.0 mg/kg/injection, schedule: Q01DX009 (ip), vehicle: saline) was 108 % of control and the T/C (dose: 45.0 mg/kg/injection, schedule: Q01DX009 (ip), vehicle: saline) was 102 % of control. The T/C (dose: 80.0 mg/kg/injection, schedule: Q01DX009 (ip), vehicle: saline) was 108 % of control and the T/C (dose: 90.0 mg/kg/injection, schedule: Q01DX009 (ip), vehicle: saline) was 88 % of control.
With `C1CC[N-]CC1.C1CC[N-]CC1.[Cl][Rh]([Cl])[Cl]` the T/C (dose: 12.5 mg/kg/injection, schedule: Q01DX009 (ip), vehicle: saline with Tween-80) was 100 % of control, the T/C [9] was 95 % of control and the T/C [7] was 102 % of control. For the same molecule, the T/C [5] was 94 % of control and the T/C [8] was 96 % of control.
With `CC(=O)SCCCCl` the T/C [7] was 108 % of control, the T/C [5] was 112 % of control and the T/C [8] was 97 % of control.
In the case of `OCC1OC(n2cnc3c2NC=NC[C@H]3O)CC1O` (some centres not stated), the T/C (dose: 0.06 mg/kg/injection, schedule: Q01DX009 (ip), vehicle: saline) was 109 % of control, the T/C (dose: 0.12 mg/kg/injection, schedule: Q01DX009 (ip), vehicle: saline) was 104 % of control and the T/C (dose: 0.25 mg/kg/injection, schedule: Q01DX009 (ip), vehicle: saline) was 101 % of control and 103 % of control. For the same molecule, the T/C (dose: 0.5 mg/kg/injection, schedule: Q01DX009 (ip), vehicle: saline) was 102 % of control and 106 % of control, the T/C [1] was 90 % of control and 98 % of control and the T/C [2] was 86 % of control.
`CC(O)C(O)C(O)C(/C=N\N=C(/N)[S-])=N/N=C(\N)[S-].[Pt+2]` (configuration not stated) was tested, and the T/C [5] was 95 % of control, the T/C [8] was 102 % of control and the T/C [6] was 105 % of control.
With `CN(C)CCN1C(=O)c2cccc3cc(N)cc(c23)C1=O` the T/C (dose: 1.0 mg/kg/injection, schedule: Q01DX009 (ip), vehicle: acid diluted with saline) was 99 % of control, the T/C (dose: 2.0 mg/kg/injection, schedule: Q01DX009 (ip), vehicle: acid diluted with saline) was 110 % of control and the T/C (dose: 4.0 mg/kg/injection, schedule: Q01DX009 (ip), vehicle: acid diluted with saline) was 114 % of control. For the same molecule, the T/C (dose: 8.0 mg/kg/injection, schedule: Q01DX009 (ip), vehicle: acid diluted with saline) was 122 % of control and the T/C (dose: 16.0 mg/kg/injection, schedule: Q01DX009 (ip), vehicle: acid diluted with saline) was 155 % of control.
With `COc1ccc(NC(=O)Nc2ccccc2F)cc1` the T/C [10] was 97 % of control and the T/C [11] was 97 % of control.
With `CCC(C)C(C(=O)O)c1ccccc1` (configuration not stated) the T/C [5] was 107 % of control, the T/C [8] was 99 % of control and the T/C [6] was 93 % of control.
For `CC(=O)CC(=O)Nc1ccc(C(=O)O)c(O)c1`, the T/C [10] was 86 % of control and the T/C [11] was 89 % of control.
For `Cc1ccc2ccccc2c1OC(C)C(=O)O` (configuration not stated), the T/C (dose: 25.0 mg/kg/injection, schedule: Q04DX003 (ip), vehicle: alcohol) was 100 % of control, the T/C (dose: 50.0 mg/kg/injection, schedule: Q01DX009 (ip), vehicle: alcohol) was 112 % of control and the T/C (dose: 50.0 mg/kg/injection, schedule: Q04DX003 (ip), vehicle: alcohol) was 100 % of control. The T/C (dose: 100.0 mg/kg/injection, schedule: Q01DX009 (ip), vehicle: alcohol) was 109 % of control and the T/C (dose: 100.0 mg/kg/injection, schedule: Q04DX003 (ip), vehicle: alcohol) was 88 % of control.
With `CC[CH2][Pb]([CH2]CC)([CH2]CC)[O]C(=O)c1ccccc1` the T/C (dose: 1.56 mg/kg/injection, schedule: Q01DX009 (ip), vehicle: Klucel (hydroxypropylcellulose) (HPC)) was 103 % of control and the T/C (dose: 3.13 mg/kg/injection, schedule: Q01DX009 (ip), vehicle: Klucel (hydroxypropylcellulose) (HPC)) was 96 % of control.
For `[Cu+2].[NH-]C1(C(=O)O)CCCC1.[NH-]C1(C(=O)O)CCCC1`, the T/C (dose: 2.5 mg/kg/injection, schedule: Q01DX009 (ip), vehicle: saline with Tween-80) was 93 % of control, the T/C [12] was 93 % of control and the T/C [13] was 93 % of control.
In the case of `CCC1(CC)OC2=C(CC(C#N)(C#N)C(C#N)(C#N)C2)O1`, the T/C (dose: 2.5 mg/kg/injection, schedule: Q04DX003 (ip), vehicle: Klucel (hydroxypropylcellulose) (HPC)) was 96 % of control, the T/C (dose: 3.12 mg/kg/injection, schedule: Q04DX003 (ip), vehicle: Klucel (hydroxypropylcellulose) (HPC)) was 100 % of control and the T/C (dose: 4.0 mg/kg/injection, schedule: Q04DX003 (ip), vehicle: Klucel (hydroxypropylcellulose) (HPC)) was 98 % of control. The T/C (dose: 9.5 mg/kg/injection, schedule: Q04DX003 (ip), vehicle: Klucel (hydroxypropylcellulose) (HPC)) was 96 % of control and the T/C [14] was 88 % of control.
With `CCCCNC(=O)Oc1ccc(C(=O)OCC)cc1` the T/C [9] was 96 % of control, the T/C [7] was 98 % of control and the T/C [5] was 95 % of control.
`COc1c(CNC(=O)CCl)cc2[nH]c(C)cc2c1CNC(=O)CCl` was tested, and the T/C (dose: 6.25 mg/kg/injection, schedule: Q01DX009 (ip), vehicle: Klucel (hydroxypropylcellulose) (HPC)) was 101 % of control, the T/C (dose: 12.5 mg/kg/injection, schedule: Q01DX009 (ip), vehicle: Klucel (hydroxypropylcellulose) (HPC)) was 106 % of control and the T/C (dose: 25.0 mg/kg/injection, schedule: Q01DX009 (ip), vehicle: Klucel (hydroxypropylcellulose) (HPC)) was 103 % of control. The T/C (dose: 50.0 mg/kg/injection, schedule: Q01DX009 (ip), vehicle: Klucel (hydroxypropylcellulose) (HPC)) was 104 % of control, the T/C [10] was 108 % of control and the T/C [11] was 97 % of control.
`CC(C)C1(C(=O)NNC(=O)CCCc2ccc(N(CCCl)CCCl)cc2)OC2(O)CCCCCN2C1=O` (configuration not stated) was tested, and the T/C (dose: 6.25 mg/kg/injection, schedule: Q04DX003 (ip), vehicle: Klucel (hydroxypropylcellulose) (HPC)) was 105 % of control, the T/C (dose: 12.5 mg/kg/injection, schedule: Q01DX009 (ip), vehicle: DMSO) was 114 % of control and the T/C [14] was 118 % of control. For the same molecule, the T/C (dose: 100.0 mg/kg/injection, schedule: Q04DX003 (ip), vehicle: Klucel (hydroxypropylcellulose) (HPC)) was 167 % of control.
For `C1CC[N-]CC1.C1CC[N-]CC1.C1CC[N-]CC1.C1CC[N-]CC1.N#C[S-].N#C[S-].[Ni]`, the T/C [12] was 92 % of control and the T/C [13] was 104 % of control.

From PubChem BioAssay AID192 (DTP/NCI, 2004)
